“Also recorded” adds a separate entry of the source.
Key:
[1] = test system: acute mouse model of morphine dependence; test: withdrawal jumping in acute mouse model of morphine dependence; format: in vivo, mice; settings: 10 mg/kg i.p.; for withdrawal jumping: mice pretreated once with morphine 100 mg/kg s.c. -4 hr, 15 minutes observation; for reduction of jumping versus parent compound: acute morphine dependence
[2] = test system: chronic mouse model of morphine dependence; test: withdrawal jumping in chronic mouse model of morphine dependence (morphine pellet implantation); format: in vivo, mice; settings: for dose needed to elicit 100 jumps/mouse / plateau of withdrawal jumping: i.p.
[3] = test system: morphine-induced antinociception; test: antagonism of morphine antinociception, 55° C. warm-water tail flick assay; format: in vivo, mice; settings: for blockade of antinociceptive actions of morphine: 10 mg/kg i.p., morphine 20 nmol i.c.v. (A90), 55° C. tail-flick; for ID50 value against morphine-induced antinociception: morphine 20 nmol i.c.v.
SH-SY5Y cells = settings: cited from earlier work
human MOR [4] = molecular target: T1, human MOR (Homo sapiens, UniProt P35372); format: biochemical
T1 construct: FLAG (N); expressed in transfected cells; host or cells: HEK 293
T1 sequence (P35372 whole entry): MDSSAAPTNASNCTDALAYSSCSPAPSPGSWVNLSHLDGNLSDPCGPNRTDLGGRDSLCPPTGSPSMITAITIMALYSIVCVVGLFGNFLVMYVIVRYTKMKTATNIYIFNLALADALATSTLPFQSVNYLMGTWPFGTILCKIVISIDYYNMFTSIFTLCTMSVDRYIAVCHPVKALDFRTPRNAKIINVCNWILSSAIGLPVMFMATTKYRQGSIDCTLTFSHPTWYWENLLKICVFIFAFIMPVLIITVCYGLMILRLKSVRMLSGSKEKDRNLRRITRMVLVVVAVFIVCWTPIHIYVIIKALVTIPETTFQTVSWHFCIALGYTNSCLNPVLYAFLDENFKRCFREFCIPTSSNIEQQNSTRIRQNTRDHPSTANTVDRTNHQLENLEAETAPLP

human MOR [5] = molecular target: T1, human MOR; format: cell-based
DOR = DOR (Rattus norvegicus, UniProt P33533); settings: cited from earlier work
Sequence of DOR (P33533 whole entry): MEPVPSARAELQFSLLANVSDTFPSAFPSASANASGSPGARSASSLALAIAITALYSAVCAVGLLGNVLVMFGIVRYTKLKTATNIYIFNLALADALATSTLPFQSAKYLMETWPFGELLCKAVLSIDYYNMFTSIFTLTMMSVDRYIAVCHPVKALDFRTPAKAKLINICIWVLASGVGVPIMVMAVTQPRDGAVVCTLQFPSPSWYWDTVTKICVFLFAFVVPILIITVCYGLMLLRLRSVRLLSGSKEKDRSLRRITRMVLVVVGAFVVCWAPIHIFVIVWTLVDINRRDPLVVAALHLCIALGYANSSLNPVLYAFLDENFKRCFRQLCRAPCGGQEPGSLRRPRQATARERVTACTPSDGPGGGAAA

μ opioid receptor = molecular target: T2, μ opioid receptor (Homo sapiens, UniProt P35372); format: binding
T2 construct: FLAG (N); expressed in transfected cells
T2 sequence (P35372 whole entry): as the sequence (P35372 whole entry) above

δ opioid receptor = molecular target: T3, δ opioid receptor (Mus musculus, UniProt P32300); test: 3H-naloxone equilibrium binding to DOR; settings: 3H-naloxone 2 nM tracer, mean of triplicate ± SD
T3 construct: expressed in transfected cells; host or cells: HEK 293
T3 sequence (P32300 whole entry): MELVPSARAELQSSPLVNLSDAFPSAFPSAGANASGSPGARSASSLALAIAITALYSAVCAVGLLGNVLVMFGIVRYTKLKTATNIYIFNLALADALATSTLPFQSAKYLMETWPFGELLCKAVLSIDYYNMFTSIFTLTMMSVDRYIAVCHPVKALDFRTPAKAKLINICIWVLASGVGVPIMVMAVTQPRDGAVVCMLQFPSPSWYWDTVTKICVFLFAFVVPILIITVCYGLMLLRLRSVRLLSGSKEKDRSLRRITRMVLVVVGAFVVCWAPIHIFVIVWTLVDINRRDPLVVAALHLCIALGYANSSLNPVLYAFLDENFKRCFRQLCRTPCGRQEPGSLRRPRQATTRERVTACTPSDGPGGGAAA

drug-dependent mice = settings: cited from earlier work

## C=CCN1CC[C@]23c4c5ccc(O)c4O[C@H]2C(=O)CC[C@@]3(O)[C@H]1C5 [Naloxone, naloxone, reference compound]
[1]
  withdrawal jumping: aversive effects (withdrawal jumping); also recorded: precipitated robust withdrawal jumping
[2]
  dose needed to elicit 100 jumps/mouse: ~0.3 mg/kg
  plateau of withdrawal jumping: approximately 200 jumps/mouse
[3]
  blockade of antinociceptive actions of morphine: blocked
[3]; antagonist i.c.v.
  ID50 value against morphine-induced antinociception: 3.4 nmol
[3]; antagonist i.p.
  ID50 value against morphine-induced antinociception: 1.1 mg/kg
SH-SY5Y cells; morphine pretreated
  effect in morphine pretreated SH-SY5Y cells: inverse agonist
SH-SY5Y cells; untreated cells
  effect in untreated SH-SY5Y cells: little effect

## O=C(/C=C/c1ccc(Cl)cc1)N[C@@]12CCC(=O)[C@@H]3Oc4c(O)ccc5c4[C@@]31CCN(CC1CC1)[C@@H]2C5 [C-CAM, clocinnamox, reference compound]
Human MOR [4]
  effect on basal 35S-GTPγS binding activity: decreased
Human MOR [5]
  effect on forskolin stimulated cAMP levels: increased
DOR
  intrinsic activity at DOR: inverse agonists

## O=C1/C(=C/c2ccccc2)C[C@@]2(O)[C@H]3Cc4ccc(O)c5c4[C@@]2(CCN3CC2CC2)[C@H]1O5 [BNTX, 7-benzylidene-7-dehydronaltrexone, reference compound]
Human MOR [4]
  effect on basal 35S-GTPγS binding activity: decreased
Human MOR [5]
  effect on forskolin stimulated cAMP levels: increased
DOR
  intrinsic activity at DOR: inverse agonists

## COC(=O)C=CC(=O)NC1CCC2(O)C3Cc4ccc(O)c5c4C2(CCN3CC2CC2)C1O5.Cl (stereo not drawn) [β-FNA, β-funaltrexamine HCl, reference compound]
Human MOR [4]
  effect on basal 35S-GTPγS binding activity: no significant effect

## N[C@@H]1CC[C@@]2(O)[C@H]3Cc4ccc(O)c5c4[C@@]2(CCN3CC2CC2)[C@H]1O5 [6β-Naltrexamine, 6β-naltrexamine]
μ opioid receptor
  Ki: 0.63 ± 0.05 nM
δ opioid receptor
  Ki: 2.3 ± 0.09 nM
[1]
  withdrawal jumping: no withdrawal jumping
[3]
  blockade of antinociceptive actions of morphine: only partial blockade

## CC(=O)N[C@@H]1CC[C@@]2(O)[C@H]3Cc4ccc(O)c5c4[C@@]2(CCN3CC2CC2)[C@@H]1O5 [6β-naltrexamide]
Human MOR [4]
  effect on basal 35S-GTPγS binding activity: no significant effect
[1]
  withdrawal jumping: no withdrawal jumping
[2]
  potency in eliciting withdrawal jumping (in words): low potency
[3]
  blockade of antinociceptive actions of morphine: effect similar to 6β-naltrexamine

## O=C1CC[C@@]2(O)[C@H]3Cc4ccc(O)c5c4[C@@]2(CCN3CC2CC2)[C@H]1O5 [Naltrexone, naltrexone, reference compound]
[1]
  withdrawal jumping: aversive effects (withdrawal jumping); also recorded: precipitated robust withdrawal jumping
[2]
  dose needed to elicit 100 jumps/mouse: approximately 0.1 mg/kg
  plateau of withdrawal jumping: approximately 200 jumps/mouse
[3]
  blockade of antinociceptive actions of morphine: blocked
[3]; antagonist i.c.v.
  ID50 value against morphine-induced antinociception: 0.26 nmol
[3]; antagonist i.p.
  ID50 value against morphine-induced antinociception: 0.22 mg/kg

## Oc1ccc2c3c1O[C@H]1[C@H](O)CC[C@@]4(O)[C@@H](C2)N(CC2CC2)CC[C@]314 [6α-Naltrexol, 6α-naltrexol]
δ opioid receptor
  Ki: 2.4 ± 0.1 nM
[1]
  reduction of jumping versus parent compound: approximately 50%
[3]
  blockade of antinociceptive actions of morphine: blocked

## Oc1ccc2c3c1O[C@H]1[C@H](O)CC[C@@]4(O)[C@@H](C2)N(CC2CC2)CC[C@]314 [6β-Naltrexol, 6β-naltrexol]
δ opioid receptor
  Ki: 2.1 ± 0.01 nM
[1]
  withdrawal jumping: no withdrawal jumping
[2]
  dose needed to elicit 100 jumps/mouse: 10 mg/kg
[3]; antagonist i.c.v.
  ID50 value against morphine-induced antinociception: 2.3 nmol
[3]; antagonist i.p.
  ID50 value against morphine-induced antinociception: 1.0 mg/kg

## C=C1CC[C@@]2(O)[C@H]3Cc4ccc(O)c5c4[C@@]2(CCN3CC2CC2)[C@H]1O5 [nalmefene, reference compound]
Human MOR [4]
  effect on basal 35S-GTPγS binding activity: decreased

## N[C@H]1CC[C@@]2(O)[C@H]3Cc4ccc(O)c5c4[C@@]2(CCN3CC2CC2)[C@H]1O5 [6α-naltrexamine]
Human MOR [4]
  effect on basal 35S-GTPγS binding activity: no significant effect

## C=CCN1CC[C@]23c4c5ccc(O)c4O[C@H]2[C@@H](O)CC[C@@]3(O)[C@H]1C5 [6α-Naloxol, 6α-naloxol]
Human MOR [4]
  blockade of inverse-agonistic effects of β-CNA: blocked
  effect on basal 35S-GTPγS binding activity: no significant effect
Human MOR [5]
  effect on forskolin stimulated cAMP levels: no effect
μ opioid receptor
  Ki: 0.63 ± 0.04 nM
δ opioid receptor
  Ki: 2.1 ± 0.2 nM
[1]
  reduction of jumping versus parent compound: approximately 50%
[3]
  blockade of antinociceptive actions of morphine: blocked

## C=CCN1CC[C@]23c4c5ccc(O)c4O[C@H]2[C@H](O)CC[C@@]3(O)[C@H]1C5 [6β-Naloxol, 6β-naloxol]
Human MOR [4]
  effect on basal 35S-GTPγS binding activity: no significant effect
Human MOR [5]
  effect on forskolin stimulated cAMP levels: no effect
μ opioid receptor
  Ki: 1.1 ± 0.02 nM
δ opioid receptor
  Ki: 2.3 ± 0.05 nM
[1]
  withdrawal jumping: no withdrawal jumping
[3]
  blockade of antinociceptive actions of morphine: only partial blockade

## D-Phe-Cys-Tyr-D-Trp-Arg-Thr-Pen-Thr-Nh2 [CTAP]
drug-dependent mice
  withdrawal elicited compared with naloxone: significantly less withdrawal than naloxone

Reference: patent publication US6713488B2 (priority 2000, dated 2004)
